Reference: US9802944B2, “Bicyclic compounds as autotaxin (ATX) and lysophosphatidic acid (LPA) production inhibitors” (Hoffmann-La Roche Inc., priority 2014, dated 2017)
pIC50: −log10 of the molar value.

Target: ATX (human His-tagged) (Homo sapiens (Human), UniProt Q13822)
Assay: Human ATX enzyme inhibition assay (fluorescence quenching, MR121 substrate)
Assay type: biochemical
Settings: 30 nM ATX, 1 μM MR121 substrate, 30° C., pH 8.0
Method: Production of Human Full Length ATX, with and without his Tag
Autotaxin (ATX-ENPP2) Cloning:
cDNA was prepared from commercial human hematopoietic cells total RNA and used as template in overlapping PCR to generate a full length human ENPP2 ORF with or without a 3′-6×His tag. These full length inserts were cloned into the pcDNA3.1V5-His TOPO (Invitrogen) vector. The DNA sequences of several single clones were verified. The DNA from a correct full length clone was used to transfect Hek293 cells for verification of protein expression. […] ATX Fermentation: Recombinant protein was produced by large-scale transient transfection in 20 L controlled stirred tank bioreactors (Sartorius). During cell growth and transfection, temperature, stirrer speed, pH and dissolved oxygen concentration were maintained at 37° C., 120 rpm, 7.1 and 30% DO, respectively. […] Expression was analyzed by Western Blot, enzymatic assay and/or analytical IMAC chromatography. After cooling the cell suspension to 4° C. in a flow-through heat exchanger, cell separation and sterile filtration of supernatant was performed by filtration through Zeta Plus 60M02 E16 (Cuno) and Sartopore 2 XLG (Sartorius) filter units. The supernatant was stored at 4° C. prior to purification. ATX Purification: 20 liter of culture supernatant were conditioned for ultrafiltration by adding Brij 35 to a final concentration of 0.02% and by adjusting the pH to 7.0 using 1 M HCl. Then the supernatant was first microfiltered through a 0.2 μm Ultran-Pilot Open Channel PES filter (Whatman) and afterwards concentrated to 1 liter through an Ultran-Pilot Screen Channel PES filter with 30 kDa MWCO (Whatman). Prior to IMAC chromatography, NiSO4 was added to a final concentration of 1 mM. The cleared supernatant was then applied to a HisTrap column (GE Healthcare) previously equilibrated in 50 mM Na2HPO4 pH 7.0, 0.5 M NaCl, 10% glycerol, 0.3% CHAPS, 0.02% NaN3. The column was washed stepwise with the same buffer containing 20 mM, 40 mM and 50 mM imidazole, respectively. The protein was subsequently eluted using a linear gradient to 0.5 M imidazole in 15 column volumes. ATX containing fractions were pooled and concentrated using an Amicon cell equipped with a 30 kDa PES filter membrane. The protein was further purified by size exclusion chromatography on Superdex S-200 prep grade (XK 26/100) (GE Healthcare) in 20 mM BICINE pH 8.5, 0.15 M NaCl, 10% glycerol, 0.3% CHAPS, 0.02% NaN3. […] The protein was stored at −80° C. […] 10 μL of MR121 substrate solution was added (1 μM final concentration), mixed 30 times and then incubated for 15 minutes at 30° C.

pIC50	Structure (SMILES)
7.66	NS(=O)(=O)c1ccc(C(=O)N2C[C@H]3CN(C(=O)c4cnc(OC5CCOCC5)c(C5CC5)c4)C[C@@H]3C2)cc1 [Example 1.02, 4-((3aS,6aS)-5-(5-cyclopropyl-6-(tetrahydro-2H-pyran-4-yloxy)nicotinoyl)octahydropyrrolo[3,4-c]pyrrole-2-carbonyl)benzenesulfonamide]
8.10	NS(=O)(=O)c1ccc(C(=O)N2C[C@H]3CN(C(=O)c4cc(OCC5CCOCC5)nc(C5CC5)c4)C[C@@H]3C2)cc1F [Example 1.04, 4-((3aR,6aR)-5-(2-cyclopropyl-6-((tetrahydro-2H-pyran-4-yl)methoxy)isonicotinoyl)octahydropyrrolo[3,4-c]pyrrole-2-carbonyl)-2-fluorobenzenesulfonamide]
8.22	NS(=O)(=O)c1ccc(C(=O)N2C[C@H]3CN(C(=O)c4cc(OCC5CCOCC5)nc(C5CC5)c4)C[C@@H]3C2)cc1Cl [Example 1.05, 2-chloro-4-((3aR,6aR)-5-(2-cyclopropyl-6-((tetrahydro-2H-pyran-4-yl)methoxy)isonicotinoyl)octahydropyrrolo[3,4-c]pyrrole-2-carbonyl)benzenesulfonamide]
8.22	O=C(c1cc(OCC2CCOCC2)cc(C2CC2)c1)N1C[C@@H]2CN(C(=O)[C@@H]3CCc4[nH]nnc4C3)C[C@H]2C1 [Example 1.16, ((3aS,6aS)-5-(3-cyclopropyl-5-((tetrahydro-2H-pyran-4-yl)methoxy)benzoyl)hexahydropyrrolo[3,4-c]pyrrol-2(1H)-yl)((R)-4,5,6,7-tetrahydro-1H-benzo[d][1,2,3]triazol-5-yl)methanone]
7.85	O=C(CCc1c[nH]c(=O)s1)N1C[C@H]2CCN(C(=O)c3cc(OCC4CCOCC4)nc(C4CC4)c3)CC[C@H]2C1 [Example 1.22, 5-(3-((3aR,8aS)-6-(2-cyclopropyl-6-((tetrahydro-2H-pyran-4-yl)methoxy)isonicotinoyl)octahydropyrrolo[3,4-d]azepin-2(1H)-yl)-3-oxopropyl)thiazol-2(3H)-one]
8.52	O=C(c1cc(OCC2CCOCC2)nc(C2CC2)c1)N1C[C@@H]2CN(C(=O)c3ccc4[nH]nnc4c3)C[C@H]2C1 [Example 2.01, ((3aS,6aS)-5-(1H-benzo[d][1,2,3]triazole-5-carbonyl)hexahydropyrrolo[3,4-c]pyrrol-2(1H)-yl)(2-cyclopropyl-6-((tetrahydro-2H-pyran-4-yl)methoxy)pyridin-4-yl)methanone]
7.77	O=C(c1ccc(OC2CCOC2)c(C2CC2)c1)N1C[C@@H]2CN(C(=O)[C@@H]3CCc4[nH]nnc4C3)C[C@H]2C1 (stereo partly drawn) [Example 2.02, ((3aS,6aS)-5-(3-cyclopropyl-4-(tetrahydrofuran-3-yloxy)benzoyl)hexahydropyrrolo[3,4-c]pyrrol-2(1H)-yl)((R)-4,5,6,7-tetrahydro-1H-benzo[d][1,2,3]triazol-5-yl)methanone]
8.00	O=C(c1ccc(OC2CCOC2)c(C2CC2)c1)N1C[C@@H]2CN(C(=O)c3ccc4[nH]nnc4c3)C[C@H]2C1 (stereo partly drawn) [Example 2.03, ((3aR,6aR)-5-(1H-benzo[d][1,2,3]triazole-5-carbonyl)hexahydropyrrolo[3,4-c]pyrrol-2(1H)-yl)(3-cyclopropyl-4-(tetrahydrofuran-3-yloxy)phenyl)methanone]
7.40	O=C(c1cnc(NC2CCOCC2)c(C2CC2)c1)N1C[C@@H]2CN(C(=O)c3ccc4[nH]nnc4c3)C[C@H]2C1 [Example 2.04, ((3aS,6aS)-5-(1H-benzo[d][1,2,3]triazole-5-carbonyl)hexahydropyrrolo[3,4-c]pyrrol-2(1H)-yl)(5-cyclopropyl-6-(tetrahydro-2H-pyran-4-ylamino)pyridin-3-yl)methanone]
7.98	O=C(c1cnc(OC2CCOC2)c(C2CC2)c1)N1C[C@@H]2CN(C(=O)c3ccc4[nH]nnc4c3)C[C@H]2C1 (stereo partly drawn) [Example 2.05, ((3aS,6aS)-5-(1H-benzo[d][1,2,3]triazole-5-carbonyl)hexahydropyrrolo[3,4-c]pyrrol-2(1H)-yl)(5-cyclopropyl-6-(tetrahydrofuran-3-yloxy)pyridin-3-yl)methanone]
8.35	O=C(c1cnc(OC2CCCOC2)c(C2CC2)c1)N1C[C@@H]2CN(C(=O)c3ccc4[nH]nnc4c3)C[C@H]2C1 (stereo partly drawn) [Example 2.06, ((3aS,6aS)-5-(1H-benzo[d][1,2,3]triazole-5-carbonyl)hexahydropyrrolo[3,4-c]pyrrol-2(1H)-yl)(5-cyclopropyl-6-(tetrahydro-2H-pyran-3-yloxy)pyridin-3-yl)methanone]
8.00	O=C(c1cnc(OC2CCOCC2)c(C2CC2)c1)N1C[C@@H]2CN(C(=O)c3ccc4[nH]nnc4c3)C[C@H]2C1 [Example 2.07, ((3aS,6aS)-5-(1H-benzo[d][1,2,3]triazole-5-carbonyl)hexahydropyrrolo[3,4-c]pyrrol-2(1H)-yl)(5-cyclopropyl-6-(tetrahydro-2H-pyran-4-yloxy)pyridin-3-yl)methanone]
7.16	O=C(c1cnc(OC2COC2)c(C(F)(F)F)c1)N1C[C@@H]2CN(C(=O)c3ccc4[nH]nnc4c3)C[C@H]2C1 [Example 2.08, ((3aS,6aS)-5-(1H-benzo[d][1,2,3]triazole-5-carbonyl)hexahydropyrrolo[3,4-c]pyrrol-2(1H)-yl)(6-(oxetan-3-yloxy)-5-(trifluoromethyl)pyridin-3-yl)methanone]
7.70	O=C(c1cnc(OC2CCOCC2)c(C2CC2)c1)N1C[C@@H]2CN(C(=O)[C@@H]3CCc4[nH]nnc4C3)C[C@H]2C1 [Example 2.09, ((3aS,6aS)-5-(5-cyclopropyl-6-(tetrahydro-2H-pyran-4-yloxy)nicotinoyl)hexahydropyrrolo[3,4-c]pyrrol-2(1H)-yl)((R)-4,5,6,7-tetrahydro-1H-benzo[d][1,2,3]triazol-5-yl)methanone]
8.05	O=C(c1cnc(NC2CCOCC2)c(C2CC2)c1)N1C[C@@H]2CN(C(=O)[C@@H]3CCc4[nH]nnc4C3)C[C@H]2C1 [Example 2.11, ((3aS,6aS)-5-(5-cyclopropyl-6-(tetrahydro-2H-pyran-4-ylamino)nicotinoyl)hexahydropyrrolo[3,4-c]pyrrol-2(1H)-yl)((R)-4,5,6,7-tetrahydro-1H-benzo[d][1,2,3]triazol-5-yl)methanone]
7.96	O=C(c1cnc(OC2CCCOC2)c(C2CC2)c1)N1C[C@@H]2CN(C(=O)[C@@H]3CCc4[nH]nnc4C3)C[C@H]2C1 (stereo partly drawn) [Example 2.12, ((3aS,6aS)-5-(5-cyclopropyl-6-(tetrahydro-2H-pyran-3-yloxy)nicotinoyl)hexahydropyrrolo[3,4-c]pyrrol-2(1H)-yl)((R)-4,5,6,7-tetrahydro-1H-benzo[d][1,2,3]triazol-5-yl)methanone]
8.00	NS(=O)(=O)c1ccc(C(=O)N2C[C@H]3CN(C(=O)c4cnc(OC5CCCOC5)c(C5CC5)c4)C[C@@H]3C2)nc1 (stereo partly drawn) [Example 2.13, 6-((3aR,6aR)-5-(5-cyclopropyl-6-(tetrahydro-2H-pyran-3-yloxy)nicotinoyl)octahydropyrrolo[3,4-c]pyrrole-2-carbonyl)pyridine-3-sulfonamide]
8.22	NS(=O)(=O)c1ccc(C(=O)N2C[C@H]3CN(C(=O)c4cc(OCC5CCOCC5)nc(C5CC5)c4)C[C@@H]3C2)nc1 [Example 2.14, 6-((3aR,6aR)-5-(2-cyclopropyl-6-((tetrahydro-2H-pyran-4-yl)methoxy)isonicotinoyl)octahydropyrrolo[3,4-c]pyrrole-2-carbonyl)pyridine-3-sulfonamide]
7.92	O=C(c1cc(OCC2CCCOC2)nc(C2CC2)c1)N1C[C@@H]2CN(C(=O)c3ccc4[nH]nnc4c3)C[C@H]2C1 (stereo partly drawn) [Example 2.15, ((3aS,6aS)-5-(1H-benzo[d][1,2,3]triazole-5-carbonyl)hexahydropyrrolo[3,4-c]pyrrol-2(1H)-yl)(2-cyclopropyl-6-((tetrahydro-2H-pyran-3-yl)methoxy)pyridin-4-yl)methanone]
7.77	O=C(c1cc(OCC2CCCOC2)nc(C2CC2)c1)N1C[C@@H]2CN(C(=O)[C@@H]3CCc4[nH]nnc4C3)C[C@H]2C1 (stereo partly drawn) [Example 2.16, ((3aS,6aS)-5-(2-cyclopropyl-6-((tetrahydro-2H-pyran-3-yl)methoxy)isonicotinoyl)hexahydropyrrolo[3,4-c]pyrrol-2(1H)-yl)((R)-4,5,6,7-tetrahydro-1H-benzo[d][1,2,3]triazol-5-yl)methanone]
